Drawing on patent US20220119411A1, “IMMUNOMODULATORS, COMPOSITIONS AND METHODS THEREOF” (BETTA PHARMACEUTICALS CO., LTD, priority 2018, published 2022), this text covers IC50 for 26 compounds.

T1 sequence (Q9NZQ7 19-238): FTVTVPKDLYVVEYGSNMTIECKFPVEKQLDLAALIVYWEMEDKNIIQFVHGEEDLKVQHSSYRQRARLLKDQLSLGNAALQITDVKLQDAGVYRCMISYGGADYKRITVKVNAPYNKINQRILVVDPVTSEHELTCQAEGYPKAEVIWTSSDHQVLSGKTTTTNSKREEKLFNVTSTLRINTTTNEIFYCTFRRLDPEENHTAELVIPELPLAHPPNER

This test has as its target T1, PD-1/PD-L1 protein/protein interaction (Homo sapiens, UniProt Q9NZQ7).
T1 construct: Recombinant human PD-L1 protein (19-238) with a His-tag at the C-terminus; purchased AcroBiosystems PD1-H5229 (PD-L1); PD1-H5257 (PD-1)
The experiment in a line: PD-1/PD-L1 homogenous time-resolved fluorescence (HTRF) binding assay. The note with it: recombinant human PD-L1 (19-238)-His 10 nM, human PD-1 (25-167)-Fc 3 nM, 25° C., PBS pH 7.4. The procedure: Resolved Fluorescence (HTRF) Binding Assay
The assays were conducted in a standard black 384-well polystyrene plate with a final volume of 20 μL. Inhibitors were first serially diluted in DMSO and then added to the plate wells before the addition of other reaction components. The final concentration of DMSO in the assay was 1%. The assays were carried out at 25° C. in the PBS buffer (pH 7.4) with 0.05% Tween-20 and 0.1% BSA. Recombinant human PD-L1 protein (19-238) with a His-tag at the C-terminus was purchased from AcroBiosy stems (PD1-H5229). Recombinant human PD-1 protein (25-167) with Fc tag at the C-terminus was also purchased from AcroBiosystems (PD1-H5257). PD-L1 and PD-1 proteins were diluted in the assay buffer and 10 μL was added to the plate well. Plates were centrifuged and proteins were preincubated with inhibitors for 40 min. The incubation was followed by the addition of 10 μL of HTRF detection buffer supplemented with Europium cryptate-labeled anti-human IgG (PerkinElmer-AD0212) specific for Fc and anti-His antibody conjugated to SureLight®—Allophycocyanin (APC, PerkinElmer-AD0059H). After centrifugation, the plate was incubated at 25° C. for 60 min. Before reading on a PHERAstar FS plate reader (665 nm/620 nm ratio). Final concentrations in the assay were—3 nM PD1, 10 nM PD-L1, 1 nM europium anti-human IgG and 20 nM anti-His-Allophycocyanin. IC50 determination was performed by fitting the curve of percent control activity versus the log of the inhibitor concentration using the GraphPad Prism 5.0 software.
Data obtained for the Example compounds using the PD-1/PD-L1 homogenous time-resolved fluorescence (HTRF) binding assay described in Example A is provided in Table 2.
Regarding `CN1CCc2c(-c3cccc4c3CCN4C(=O)c3nc4c(s3)CN(CC(=O)O)CC4)cccc21` [Example 1, 2-(2-(1′-methyl-[4,4′-biindoline]-1-carbonyl)-6,7-dihydrothiazolo[5,4-c]pyridin-5(4H)-yl)acetic acid], the IC50 was in the range of 25 to 100 nM.

For the compound `CC(=O)N1CCc2c(-c3cccc4c3CCN4C(=O)c3nc4c(s3)CN(CC(=O)O)CC4)cccc21` [Example 2, 2-(2-(1′-acetyl-[4,4′-biindoline]-1-carbonyl)-6,7-dihydrothiazolo[5,4-c]pyridin-5(4H)-yl)acetic acid], the half-inhibitory concentration (IC50) is no more than 25 nM.

For the compound `COc1cccc(-c2cccc3c2CCN3C(=O)c2nc3c(s2)CN(CC(=O)O)CC3)c1` [Example 3, 2-(2-(4-(3-methoxyphenyl)indoline-1-carbonyl)-6,7-dihydrothiazolo[5,4-c]pyridin-5(4H)-yl)acetic acid], the concentration for half-maximal inhibition (IC50) is no more than 25 nM.

Consider `O=C(O)CN1CCc2nc(C(=O)N3CCc4c(-c5ccccc5)cccc43)sc2C1` [Example 4, 2-(2-(4-phenylindoline-1-carbonyl)-6,7-dihydrothiazolo[5,4-c]pyridin-5(4H)-yl)acetic acid], for which the concentration for half-maximal inhibition (IC50) was no more than 25 nM.

For the compound `Cc1ccccc1-c1cccc2c1CCN2C(=O)c1nc2c(s1)CN(CC(=O)O)CC2` [Example 5, 2-(2-(4-(o-tolyl)indoline-1-carbonyl)-6,7-dihydrothiazolo[5,4-c]pyridin-5(4H)-yl)acetic acid], the IC50 is 25 to 100 nM.

With `O=C(O)CN1CCc2nc(C(=O)N3CCc4c(-c5cccc6c5CCN6CCCN5CCOCC5)cccc43)sc2C1` [Example 6, 2-(2-(1′-(3-morpholinopropyl)-[4,4′-biindoline]-1-carbonyl)-6,7-dihydrothiazolo[5,4-c]pyridin-5(4H)-yl)acetic acid], the IC50 was no more than 25 nM.

As for `O=C(O)CN1CCc2nc(C(=O)N3CCc4c(-c5cccc(OCCCN6CCC(O)C6)c5)cccc43)sc2C1` (centres unmarked) [Example 7, 2-(2-(4-(3-(3-(3-hydroxypyrrolidin-1-yl)propoxy)phenyl)indoline-1-carbonyl)-6,7-dihydrothiazolo[5,4-c]pyridin-5(4H)-yl)acetic acid], the IC50 is no more than 25 nM.

On to `O=C(O)CN1CCc2nc(C(=O)N3CCc4c(-c5cccc(OCCN6CCC(O)C6)c5)cccc43)sc2C1` (centres unmarked) [Example 8, 2-(2-(4-(3-(2-(3-hydroxypyrrolidin-1-yl)ethoxy)phenyl)indoline-1-carbonyl)-6,7-dihydrothiazolo[5,4-c]pyridin-5(4H)-yl)acetic acid], for which the IC50 is no more than 25 nM.

Turning to `O=C(O)CN1CCc2nc(C(=O)N3CCc4c(-c5cccc(OCCCCN6CCC(O)C6)c5)cccc43)sc2C1` (centres unmarked) [Example 9, 2-(2-(4-(3-(4-(3-hydroxypyrrolidin-1-yl)butoxy)phenyl)indoline-1-carbonyl)-6,7-dihydrothiazolo[5,4-c]pyridin-5(4H)-yl)acetic acid], the IC50 was no more than 25 nM.

Regarding `O=C(O)CN1CCc2nc(C(=O)N3CCc4c(-c5cccc(OCCCN6CCC(O)C6)c5)cccc43)sc2C1` (centres unmarked) [Example 10, 2-(2-(4-(3-(3-(3-hydroxypyrrolidin-1-yl)propoxy)phenyl)indoline-1-carbonyl)-6,7-dihydrothiazolo[5,4-c]pyridin-5(4H)-yl)acetic acid], the IC50 is no more than 25 nM.

In the case of `O=C(O)CN1CCc2nc(C(=O)N3CCc4c(-c5cccc6c5CCN6CCCN5CCC(O)C5)cccc43)sc2C1` (centres unmarked) [Example 11, 2-(2-(1′-(3-(3-hydroxypyrrolidin-1-yl)propyl)-[4,4′-biindoline]-1-carbonyl)-6,7-dihydrothiazolo[5,4-c]pyridin-5(4H)-yl)acetic acid], the IC50 is no more than 25 nM.

Consider `O=C(O)CN1CCc2nc(C(=O)N3CCc4c(-c5cccc6c5CCN6CCN5CCC(O)C5)cccc43)sc2C1` (centres unmarked) [Example 12, 2-(2-(1′-(2-(3-hydroxypyrrolidin-1-yl)ethyl)-[4,4′-biindoline]-1-carbonyl)-6,7-dihydrothiazolo[5,4-c]pyridin-5(4H)-yl)acetic acid], for which the IC50 was no more than 25 nM.

Consider `Cc1c(NC(=O)CCN2CCC(O)C2)cccc1-c1cccc2c1CCN2C(=O)c1nc2c(s1)CN(CC(=O)O)CC2` (centres unmarked) [Example 13, 2-(2-(4-(3-(3-(3-hydroxypyrrolidin-1-yl)propanamido)-2-methylphenyl)indoline-1-carbonyl)-6,7-dihydrothiazolo[5,4-c]pyridin-5(4H)-yl)acetic acid], for which the IC50 is no more than 25 nM.

For `O=C(O)CN1CCc2nc(C(=O)N3CCc4c(-c5cccc(NC(=O)CCN6CCC(O)C6)c5)cccc43)sc2C1` (centres unmarked) [Example 14, 2-(2-(4-(3-(3-(3-hydroxypyrrolidin-1-yl)propanamido)phenyl)indoline-1-carbonyl)-6,7-dihydrothiazolo[5,4-c]pyridin-5(4H)-yl)acetic acid], the concentration for half-maximal inhibition (IC50) was no more than 25 nM.

On to `O=C(O)CN1CCc2nc(C(=O)N3CCc4c(-c5cccc(OCCCN6CCOCC6)c5)cccc43)sc2C1` [Example 15, 2-(2-(4-(3-(3-morpholinopropoxy)phenyl)indoline-1-carbonyl)-6,7-dihydrothiazolo[5,4-c]pyridin-5(4H)-yl)acetic acid], for which the IC50 is no more than 25 nM.

Turning to `O=C(O)CN1CCc2nc(C(=O)N3CCc4c(-c5cccc(CCCCN6CCOCC6)c5)cccc43)sc2C1` [Example 16, 2-(2-(4-(3-(4-morpholinobutyl)phenyl)indoline-1-carbonyl)-6,7-dihydrothiazolo[5,4-c]pyridin-5(4H)-yl)acetic acid], the concentration for half-maximal inhibition (IC50) is no more than 25 nM.

With `O=C(O)CN1CCc2nc(C(=O)N3CCc4c(-c5cccc(CCCN6CCOCC6)c5)cccc43)sc2C1` [Example 17, 2-(2-(4-(3-(3-morpholinopropyl)phenyl)indoline-1-carbonyl)-6,7-dihydrothiazolo[5,4-c]pyridin-5(4H)-yl)acetic acid], the 50% inhibitory concentration (IC50) was no more than 25 nM.

Turning to `O=C(O)CN1CCc2nc(C(=O)N3CCc4c(-c5cccc(/C=C/CN6CCOCC6)c5)cccc43)sc2C1` [Example 18, (E)-2-(2-(4-(3-(3-morpholinoprop-1-en-1-yl)phenyl)indoline-1-carbonyl)-6,7-dihydrothiazolo[5,4-c]pyridin-5(4H)-yl)acetic acid], the half-maximal inhibitory concentration (IC50) is no more than 25 nM.

For the compound `O=C(O)CN1CCc2nc(C(=O)N3CCc4c(-c5cccc(CCN6CCOCC6)c5)cccc43)sc2C1` [Example 19, 2-(2-(4-(3-(2-morpholinoethyl)phenyl)indoline-1-carbonyl)-6,7-dihydrothiazolo[5,4-c]pyridin-5(4H)-yl)acetic acid], the IC50 is no more than 25 nM.

Turning to `Cc1c(NC(=O)CCN2CCC(O)C2)cccc1-c1cccc2c1CCN2C(=O)c1nc2c(n1C)CN(CC(=O)O)CC2` (centres unmarked) [Example 20, 2-(2-(4-(3-(3-(3-hydroxypyrrolidin-1-yl)propanamido)-2-methylphenyl)indoline-1-carbonyl)-3-methyl-3,4,6,7-tetrahydro-5H-imidazo[4,5-c]pyridin-5-yl)acetic acid], the concentration for half-maximal inhibition (IC50) was no more than 25 nM.

Take `Cc1c(OCCCN2CCOCC2)cccc1-c1cccc2c1CCN2C(=O)c1nc2c(n1C)CN(CC(=O)O)CC2` [Example 21, 2-(3-methyl-2-(4-(2-methyl-3-(3-morpholinopropoxy)phenyl)indoline-1-carbonyl)-3,4,6,7-tetrahydro-5H-imidazo[4,5-c]pyridin-5-yl)acetic acid]: the concentration for half-maximal inhibition (IC50) was no more than 25 nM.

On to `Cc1c(NC(=O)CCN2CCC(O)C2)cccc1-c1cccc2c1CCN2C(=O)c1nc2c(o1)CN(CC(=O)O)CC2` (centres unmarked) [Example 22, 2-(2-(4-(3-(3-(3-hydroxypyrrolidin-1-yl)propanamido)-2-methylphenyl)indoline-1-carbonyl)-6,7-dihydrooxazolo[5,4-c]pyridin-5(4H)-yl)acetic acid], for which the IC50 is no more than 25 nM.

Regarding `Cc1c(OCCCN2CCOCC2)cccc1-c1cccc2c1CCN2C(=O)c1nc2c(o1)CN(CC(=O)O)CC2` [Example 23, 2-(2-(4-(2-methyl-3-(3-morpholinopropoxy)phenyl)indoline-1-carbonyl)-6,7-dihydrooxazolo[5,4-c]pyridin-5(4H)-yl)acetic acid], the IC50 was no more than 25 nM.

In the case of `O=C(O)CN1CCc2nc(C(=O)N3CCc4c(-c5cccc6c5CCN6C(=O)c5nccs5)cccc43)sc2C1` [Example 24, 2-(2-(1′-(thiazole-2-carbonyl)-[4,4′-biindoline]-1-carbonyl)-6,7-dihydrothiazolo[5,4-c]pyridin-5(4H)-yl)acetic acid], the concentration for half-maximal inhibition (IC50) was 25 to 100 nM.

As to `O=C(O)CN1CCc2nc(C(=O)N3CCc4c(-c5cccc6c5CCN6C(=O)c5ccccn5)cccc43)sc2C1` [Example 25, 2-(2-(1′-picolinoyl-[4,4′-biindoline]-1-carbonyl)-6,7-dihydrothiazolo[5,4-c]pyridin-5(4H)-yl)acetic acid], the IC50 was in the range of 25 to 100 nM.

Turning to `Cc1c(NC(=O)c2nccs2)cccc1-c1cccc2c1CCN2C(=O)c1nc2c(s1)CN(CC(=O)O)CC2` [Example 26, 2-(2-(4-(2-methyl-3-(thiazole-2-carboxamido)phenyl)indoline-1-carbonyl)-6,7-dihydrothiazolo[5,4-c]pyridin-5(4H)-yl)acetic acid], the IC50 is no more than 25 nM.
